Reference: US20260374809A1, “COMPOUNDS USEFUL FOR THE TREATMENT AND/OR CARE OF THE SKIN, HAIR, NAILS AND/OR MUCOUS MEMBRANES” (Lubrizol Advanced Materials, Inc., priority 2022, published 2026)
Where a SMILES comes first, the peptide text is derived from it. [ ]: non-standard residue; d: D form. The star is where a group is joined. Palmitoyl = CCCCCCCCCCCCCCCC(=O)*

What was measured:
[1] = system: Human dermal fibroblast (HDF); assay: Collagen contraction assay with human dermal fibroblasts in collagen gel; type: cell-based; conditions: 0.01 mg/ml; basal control = 100, positive control with MES = 159.7
Source text: It is known that a remarkable change in the mechanical properties of the skin with aging is due to reduced contractile capacity as well as reduced migration activity of fibroblasts. Healthy fibroblasts induce contraction of the collagen network through physical interactions with collagen fibers. The collagen network is essential for maintaining the firmness of the skin. The collagen contraction assay is a well-known experimental approach to measuring the cell-induced contraction of the extracellular matrix. In this assay, the capacity of fibroblasts, embedded in a collagen-based gel, to reduce the gel diameter is evaluated.
By improving the contractile forces, the mechanical tension can be improved, which can be associated to “lifting” effect at the scale of fibroblasts.
The microcurrent system was built by coupling gold electrodes (in order to avoid medium oxidation leading to cell death when current goes through) to opposite sides of 60 mm Petri dishes (separated by 4 cm). When a voltage is applied, an electric field generates between opposite positive and negative poles and current passes through the culture. During the stimulation time (2 hours), each of the 60 mm Petri dishes is connected to a voltage source that allows regulating the amount of current that passes through each of them. For these experiments, a […] current (which corresponds to approx. 67 mV/mm) was used.
Human dermal fibroblast (HDF) cell culture and expansion: Cells were thawed in T75 flasks and the growth medium was changed every 2 days of cell culture. After 7 days, cells were expanded to obtain a total amount of 7×10^6 cells to be used in the experiments.
Once finished the expansion, cultures are trypsinized and seeded at 3×10^5 cells/60 mm Petri up to a total of 10 dishes per replicate. These ten dishes correspond to one experiment (Control/-MES vs+MES) at a specific concentration. Peptide treatment was performed at 0.01 mg/ml.
After an overnight (O/N) incubation to allow cell attachment, each Petri dish is treated at the corresponding concentration with 4 ml of specific medium for a total of 24 hours in both conditions (without MES and with MES). Peptide treatment on the dishes that are not stimulated with microcurrent is initiated 2 hours in advance, and their passage into 3D cultures occurs at the same time as the microcurrent stimulation of the other dishes. […]
Each 3D culture is prepared by mixing collagen solution with the culture medium corresponding to each of the conditions (without peptide or with peptide). […] Images of collagen gel diameter are taken of each well at 24 hours post detachment and analyzed by ImageJ. […]
[formula] • An initial area is stablished. […] Area t=0 gel […]1.86 cm^2 (Area of a well in a 24-well plate) • Quantification of Area at t=x; Ax. […]

eyebrow = assay: In vivo eyebrow lifting effect in Caucasian volunteers (FrameScan image analysis); set-up: species or system human; conditions: 28 days; result in words
Method: The study was carried out for 28 days. Forty-six (46) volunteers aged between 40 and 65 years old were included in the study and were divided into two groups. The first group included 36 volunteers (31 women and 5 men) which applied the composition described in Example 5 on half face and placebo (same composition without peptide) on the other half, twice a day for 28 days. The second group of 10 volunteers (9 women and 1 man) used a microcurrent device (Nuface®) with an activator gel without active ingredients once a day. Volunteers using the microcurrent device were trained on how to apply the activator gel and how to use the device to standardize its application among them. […]
Volunteers' facial images were acquired at initial time and after 28 days of product application. The efficacy of the product was assessed by the measurement of a diagonal distance between eyelashes and eyebrows obtained from image analysis with FrameScan® software. The diagonal distance was calculated by drawing a horizontal line between a point at the start of the eyelashes and a point at the end of eyelashes (the eyelashes' line). […]
A study was carried out for 28 days for determining the lifting effect of Ac-Asp-Val-Tyr-Lys-NH2 (not according to the invention). […] The eyebrow lifting effect was determined as disclosed in Example 12.

[2] = system: Musclebind Like Protein 1 (MBNL1); assay: MBNL1 protein expression in human skeletal muscle cells (hSKMC), HTRF; type: cell-based; conditions: 0.5 mg/ml, 48 hours, relative to basal control
Method: Musclebind Like Protein 1 (MBNL1) in Human Skeletal Muscle Cells (hSKMC)
An increase of MBNL-1 in muscle cells helps maintaining the tone of facial skin muscles. Thus, compounds able to enhance MBNL-1 can be used as a good approach for cosmetic treatment of sagging facial appearance.
Human skeletal muscle cells (hSKMC) were cultured at 100,000 cells in T25 flasks with growth medium. After 4 days, cells reached around 80% of confluency and were seeded at 150,000 cells per well in 12-well plates in growth medium. Cells were incubated for 72 hours and then they were changed to differentiation medium and incubated during 48 hours. At the end of this period, cells were treated with defined peptides (0.5 mg/ml) and with medium alone for control conditions during 48 hours in differentiation medium. Cells were also treated with 2 mM of ketoprofen as a positive control.
After the incubation period, cells were lysed and frozen at −80 °C. For total protein quantification protein extract was measured by Bicinchoninic Acid (BCA) method. MBNL1 protein detection was performed by Homogeneous Time Resolved Fluorescence (HTRF) technology. Normalization of MBNL1 levels were performed by total protein quantification for each condition. Results are expressed as a relative MBNL1 protein level respect to control conditions. At least 3 replicates were carried out per condition.

Compound | Collagen contraction, MEAN (comparative peptides) [1] | Lifting effect (eyebrow) | % MBNL1 vs Basal control [2] [%]
CSCC[C@H](NC(=O)[C@@H](CCC(N)=O)NC(=O)[C@H](CCCNC(=N)N)NC(=O)[C@H](CCCNC(=N)N)NC(C)=O)C(=O)N[C@@H](CCC(=O)O)C(=O)N[C@@H](CCC(=O)O)C(N)=O [Ac-Arg-Arg-D-Gln-Met-Glu-Glu-NH2] (Ac-RR[dQ]MEE-NH2) | 82.5 |  | 
CC(=O)N[C@@H](CC(=O)O)C(=O)N[C@H](C(=O)N[C@@H](Cc1ccc(O)cc1)C(=O)N[C@@H](CCCCN)C(N)=O)C(C)C [Ac-Asp-Val-Tyr-Lys-NH2] (Ac-DVYK-NH2) | 91.6 | did not have a lifting effect | 
CC(C)C[C@H](N)C(=O)N1CCC[C@H]1C(=O)N[C@H](C(=O)N[C@H](C(N)=O)[C@@H](C)O)C(C)C [PEP-2, H-Leu-Pro-Val-Thr-NH2] (H-LPVT-NH2) |  |  | 183.2
CCCCCCCCCCCCCCCC(=O)N[C@@H](CC(C)C)C(=O)N1CCC[C@H]1C(=O)N[C@H](C(=O)N[C@H](C(=O)O)[C@@H](C)O)C(C)C [PEP-3, Palm-Leu-Pro-Val-Thr-OH] (Palmitoyl-LPVT-OH) |  |  | 160.4
CC(=O)N[C@@H](CC(C)C)C(=O)N1CCC[C@H]1C(=O)N[C@H](C(=O)N[C@H](C(=O)O)[C@@H](C)O)C(C)C [PEP-4, Ac-Leu-Pro-Val-Thr-OH] (Ac-LPVT-OH) |  |  | 131.3
CC(=O)N[C@@H](CC(C)C)C(=O)N1CCC[C@H]1C(=O)N[C@H](C(=O)N[C@H](C(N)=O)[C@@H](C)O)C(C)C [PEP-5, Ac-Leu-Pro-Val-Thr-NH2] (Ac-LPVT-NH2) |  |  | 213.7
CC(C)C[C@H](N)C(=O)N[C@@H](C)C(=O)N[C@H](C(=O)N[C@H](C(=O)O)[C@@H](C)O)C(C)C [PEP-6, H-Leu-Ala-Val-Thr-OH] (H-LAVT-OH) |  |  | 157.0
CC[C@H](C)[C@H](NC(=O)[C@@H]1CCCN1C(=O)[C@@H](N)CC(C)C)C(=O)N[C@H](C(=O)O)[C@@H](C)O [PEP-7, H-Leu-Pro-Ile-Thr-OH] (H-LPIT-OH) |  |  | 156.3
CC(C)[C@H](N)C(=O)N1CCC[C@H]1C(=O)N[C@H](C(=O)N[C@H](C(=O)O)[C@@H](C)O)C(C)C [PEP-8, H-Val-Pro-Val-Thr-OH] (H-VPVT-OH) |  |  | 131.3
CC(C)C[C@H](N)C(=O)NCC(=O)N[C@H](C(=O)N[C@H](C(=O)O)[C@@H](C)O)C(C)C [PEP-9, H-Leu-Gly-Val-Thr-OH] (H-LGVT-OH) |  |  | 122.4
CC(C)C[C@H](NC(=O)[C@@H]1CCCN1C(=O)[C@@H](N)CC(C)C)C(=O)N[C@H](C(=O)O)[C@@H](C)O [PEP-10, H-Leu-Pro-Leu-Thr-OH] (H-LPLT-OH) |  |  | 222.0
CC(C)C[C@H](N)C(=O)N1CCC[C@H]1C(=O)N[C@H](C(=O)O)C(C)C [PEP-12, H-Leu-Pro-Val-OH] (H-Leu-Pro-Val-OH) |  |  | 177.8
CC[C@H](C)[C@H](N)C(=O)N1CCC[C@H]1C(=O)N[C@H](C(=O)N[C@H](C(=O)O)[C@@H](C)O)[C@@H](C)CC [PEP-13, H-Ile-Pro-Ile-Thr-OH] (H-IPIT-OH) |  |  | 133.3
H-ALKPNT-NH2 [H-Ala-Leu-Lys-Pro-Asn-Thr-NH2] | 101.4 |  | 
H-ALPVT-OH [PEP-11, H-Ala-Leu-Pro-Val-Thr-OH] |  |  | 259.0
